Consider one molecule from paper PMC6438731, “Extrasynaptic δ‐GABAA receptors are high‐affinity muscimol receptors” (Journal of Neurochemistry, 2019).

Several values for one entry are separate records, joined by “and”; a condition that tells them apart may be missing. Equal values may be shown once. Read-outs that look alike come from different tables or passages of the source.

In series [1] the target is forebrain membranes of δKO mice (non‐δ‐GABAARs). As to the kind of experiment: [^3H]muscimol binding kinetics, δKO forebrain membranes. Also noted: species or system mouse. The procedure: (§1) WT and δKO forebrain and cerebellar membranes were prepared using a modification of the method of Squires and Saederup (2000) essentially as described by Uusi‐Oukari et al. (2014). […] forebrain along with midbrain region was homogenized into 10 mM Tris‐HCl, pH 8.0 buffer containing 2 mM EDTA, using an Ultra‐Turrax T25 (Janke & Kunkel IKA labortechnik) for 20 s at 9500 rpm. The homogenates were centrifuged at 20 000 g for 10 min at +4°C and the resulting pellets were washed three times by resuspension and re‐centrifugation with 10 mM Tris‐HCl, pH 8.5 buffer containing 0.2 M NaCl, and 5 mM EDTA. The resulting pellets were then suspended in ice‐cold H2O and centrifuged. The pellets were again washed three times with Tris, pH 8.5/NaCl/EDTA as described above. The resulting pellets were finally suspended in assay buffer consisting of 50 mM Tris‐base, pH adjusted to 7.4 with citric acid, and frozen at −70°C. Before a binding experiment, the suspension was thawed, centrifuged, and suspended in assay buffer.
(§2) The binding of [^3H]muscimol (5 nM) was measured in assay buffer at 22°C in a total volume of 300 μL. Triplicate technical replicates of mouse forebrain (190–215 μg protein), cerebellar (180–210 μg protein) or HEK cell (92–132 μg protein) membranes for each time point were incubated with shaking for various times (15 s–15 min) to measure association of the binding. […] The incubation was terminated by filtration of the samples with a Brandel Cell Harvester (model M‐24, Gaithersburg, MD, USA) onto Whatman GF/B filters (Whatman International Ltd., Maidstone, UK). The samples were rinsed twice with 4–5 mL of ice‐cold assay buffer. Filtration and rinsing steps took a total time of ~15 s. Air‐dried filters were immersed in 3 mL of Optiphase HiSafe 3 scintillation fluid (Wallac, Turku, Finland) and radioactivity determined in a Wallac model 1410 liquid scintillation counter (Wallac, Turku, Finland). The maximal binding disintegrations per minute (DPM) values (at 15 min in association) for recombinant studies with 5 nM [^3H]muscimol were between 700 and 2500 DPMs of specific binding (background subtracted). In native membranes, the maximal DPM values were between 2500 and 3000 for WTs and 1300–1500 for δKOs.
(§3) The tubes were mixed and incubations at 22°C were terminated at various time points (30 s – 30 min) as described above. Dissociation of [^3H]muscimol from recombinant receptors in HEK cell membranes was also measured at 0–4°C (on ice) to evaluate how fast [^3H]muscimol dissociates from receptors while washing the filter with ice‐cold assay buffer during filtration.

On the set-up of series [2]: method as in Maggi and Enna 1979. Particulars: rat brain, ref Maggi and Enna 1979; cited from earlier work.
In series [3] the target is cerebellar membranes of WT mice. As to the kind of experiment: [^3H]muscimol binding kinetics, WT cerebellar membranes. Further details: species or system mouse. The procedure: as §1
(§4) The binding of [^3H]muscimol (5 nM) was measured in assay buffer at 22°C in a total volume of 300 μL. Triplicate technical replicates of mouse forebrain (190–215 μg protein), cerebellar (180–210 μg protein) or HEK cell (92–132 μg protein) membranes for each time point were incubated with shaking for various times (15 s–15 min) to measure association of the binding. […] Air‐dried filters were immersed in 3 mL of Optiphase HiSafe 3 scintillation fluid (Wallac, Turku, Finland) and radioactivity determined in a Wallac model 1410 liquid scintillation counter (Wallac, Turku, Finland). […]
as §3

For series [4], the target named is T1, α6β2 recombinant GABAA receptor (Rattus norvegicus, UniProt P30191+P63138).
T1 construct: expressed in transfected cells; host or cells: HEK293 (ATCC CRL-1573), pRK5 plasmids, membranes
T1 sequence (P30191 20-453): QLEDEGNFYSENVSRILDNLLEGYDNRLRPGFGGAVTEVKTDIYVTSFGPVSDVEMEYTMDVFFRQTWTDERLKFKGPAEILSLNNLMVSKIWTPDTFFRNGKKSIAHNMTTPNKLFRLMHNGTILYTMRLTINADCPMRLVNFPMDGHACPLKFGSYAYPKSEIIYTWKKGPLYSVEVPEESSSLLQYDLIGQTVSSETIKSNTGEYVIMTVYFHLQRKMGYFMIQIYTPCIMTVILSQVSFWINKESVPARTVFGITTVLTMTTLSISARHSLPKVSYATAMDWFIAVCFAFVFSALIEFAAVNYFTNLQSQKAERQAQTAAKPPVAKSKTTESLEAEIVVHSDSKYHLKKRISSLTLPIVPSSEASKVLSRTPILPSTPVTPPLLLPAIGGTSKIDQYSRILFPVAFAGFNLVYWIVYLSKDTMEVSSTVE
T1 sequence (P63138 26-474): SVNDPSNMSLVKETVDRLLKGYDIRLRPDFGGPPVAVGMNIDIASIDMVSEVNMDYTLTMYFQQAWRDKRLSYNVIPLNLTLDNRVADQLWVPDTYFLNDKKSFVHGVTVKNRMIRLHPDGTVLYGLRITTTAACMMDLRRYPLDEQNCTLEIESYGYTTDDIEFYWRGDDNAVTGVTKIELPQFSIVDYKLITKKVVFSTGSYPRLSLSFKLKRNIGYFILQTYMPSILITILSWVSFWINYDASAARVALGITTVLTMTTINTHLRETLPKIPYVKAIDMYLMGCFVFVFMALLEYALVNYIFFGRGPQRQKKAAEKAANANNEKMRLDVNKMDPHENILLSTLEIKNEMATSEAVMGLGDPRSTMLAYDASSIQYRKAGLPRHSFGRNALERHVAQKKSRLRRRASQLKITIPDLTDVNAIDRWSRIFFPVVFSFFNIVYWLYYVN
As to the kind of experiment: [^3H]muscimol binding kinetics, recombinant α6β2 in HEK293 membranes. As to conditions: room temperature (22°C).
Excerpt: Human embryonic kidney (HEK) 293 cells (ATCC Cat# CRL‐1573; RRID: CVCL_0045; a commonly misidentified cell line by ICLAC; last authenticated by STR DNA profiling in December 2018) were transfected with rat cDNAs (α1, L08490; α6, L08495; β2, X15467; β3, X15468; γ2S, L08497; δ, L08496) in pRK5 plasmids under the control of the cytomegalovirus promoter (Uusi‐Oukari et al. 2000), using the calcium phosphate precipitation method essentially as described (Lüddens and Korpi 1997). The plasmids were used in 1 : 1 and 1 : 1 : 1 ratios for transfections containing 2 [(α1 or α6) + (β2 or β3)] or 3 [(α1 or α6) + (β2 or β3) + (γ2S or δ)] different subunits, respectively (5 μg of each plasmid DNA for a 10 cm plate). […]
The binding of [^3H]muscimol (5 nM) was measured in assay buffer at 22°C in a total volume of 300 μL. […] Air‐dried filters were immersed in 3 mL of Optiphase HiSafe 3 scintillation fluid (Wallac, Turku, Finland) and radioactivity determined in a Wallac model 1410 liquid scintillation counter (Wallac, Turku, Finland). […]
as §3

The target in series [5] is native δ‐GABAARs in the cerebellum (WT‐δKO, α6βδ) (Mus musculus, UniProt P16305+P63137). The series is described as follows: [^3H]muscimol binding kinetics, cerebellum WT‐δKO (subtracted). Particulars: 22°C. The procedure: as §1, §4
Chain of native δ‐GABAARs in the cerebellum (WT‐δKO, α6βδ) (P16305 20-453): as the sequence (P30191 20-453) above, with H121Q, S163T, K325T, T333A, T334S, E338Q, V371A, P379K, T384S, I392T counted along it
Chain of native δ‐GABAARs in the cerebellum (WT‐δKO, α6βδ) (P63137 26-512): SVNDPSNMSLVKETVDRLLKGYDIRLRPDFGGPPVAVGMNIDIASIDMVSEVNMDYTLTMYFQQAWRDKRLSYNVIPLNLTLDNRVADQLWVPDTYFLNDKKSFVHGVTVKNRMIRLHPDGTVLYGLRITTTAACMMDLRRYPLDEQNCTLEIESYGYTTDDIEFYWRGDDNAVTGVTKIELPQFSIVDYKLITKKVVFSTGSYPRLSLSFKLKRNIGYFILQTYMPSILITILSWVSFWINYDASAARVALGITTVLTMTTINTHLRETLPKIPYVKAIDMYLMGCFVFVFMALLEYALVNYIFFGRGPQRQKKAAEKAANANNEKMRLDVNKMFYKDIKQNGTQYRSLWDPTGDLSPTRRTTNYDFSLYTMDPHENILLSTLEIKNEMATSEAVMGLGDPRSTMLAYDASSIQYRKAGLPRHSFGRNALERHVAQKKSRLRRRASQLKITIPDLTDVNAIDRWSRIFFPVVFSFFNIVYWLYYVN
Chain of native δ‐GABAARs in the cerebellum (WT‐δKO, α6βδ) (P22933 25-449 partner): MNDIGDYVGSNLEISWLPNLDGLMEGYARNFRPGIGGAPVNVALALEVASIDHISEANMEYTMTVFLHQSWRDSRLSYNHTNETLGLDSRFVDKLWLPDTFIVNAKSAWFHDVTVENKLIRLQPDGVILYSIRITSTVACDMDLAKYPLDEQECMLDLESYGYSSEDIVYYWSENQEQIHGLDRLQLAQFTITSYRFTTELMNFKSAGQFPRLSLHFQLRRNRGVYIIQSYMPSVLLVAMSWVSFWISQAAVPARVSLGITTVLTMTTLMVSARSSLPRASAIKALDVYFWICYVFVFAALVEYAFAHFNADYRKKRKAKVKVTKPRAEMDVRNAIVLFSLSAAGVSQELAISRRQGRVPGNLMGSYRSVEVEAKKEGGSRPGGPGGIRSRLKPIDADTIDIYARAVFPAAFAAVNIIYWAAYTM
The tubes were mixed and incubations at 22°C were terminated at various time points (30 s – 30 min) as described above. Dissociation of [^3H]muscimol from recombinant receptors in HEK cell membranes was also measured at 0–4°C (on ice) to evaluate how fast [^3H]muscimol dissociates from receptors while washing the filter with ice‐cold assay buffer during filtration. […]

Series [6] deals with T2, α1β2γ2 recombinant GABAA receptor (Rattus norvegicus, UniProt P62813+P63138).
T2 construct: expressed in transfected cells; host or cells: HEK293 (ATCC CRL-1573), pRK5 plasmids, membranes
T2 sequence (P62813 28-455): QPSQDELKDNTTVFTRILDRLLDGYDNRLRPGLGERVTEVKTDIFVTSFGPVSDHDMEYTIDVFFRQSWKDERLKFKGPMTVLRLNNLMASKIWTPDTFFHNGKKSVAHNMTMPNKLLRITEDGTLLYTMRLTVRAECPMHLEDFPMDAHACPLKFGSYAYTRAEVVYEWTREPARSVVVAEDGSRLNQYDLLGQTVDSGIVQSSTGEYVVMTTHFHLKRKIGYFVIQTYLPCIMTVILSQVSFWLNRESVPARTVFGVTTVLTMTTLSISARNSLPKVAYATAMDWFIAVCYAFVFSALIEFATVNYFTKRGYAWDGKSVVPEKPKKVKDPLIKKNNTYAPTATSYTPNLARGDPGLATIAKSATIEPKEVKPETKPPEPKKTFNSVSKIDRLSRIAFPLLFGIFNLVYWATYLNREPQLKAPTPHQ
T2 sequence (P63138 26-474): as the sequence (P63138 26-474) above
T2 sequence (P18508 39-466 partner): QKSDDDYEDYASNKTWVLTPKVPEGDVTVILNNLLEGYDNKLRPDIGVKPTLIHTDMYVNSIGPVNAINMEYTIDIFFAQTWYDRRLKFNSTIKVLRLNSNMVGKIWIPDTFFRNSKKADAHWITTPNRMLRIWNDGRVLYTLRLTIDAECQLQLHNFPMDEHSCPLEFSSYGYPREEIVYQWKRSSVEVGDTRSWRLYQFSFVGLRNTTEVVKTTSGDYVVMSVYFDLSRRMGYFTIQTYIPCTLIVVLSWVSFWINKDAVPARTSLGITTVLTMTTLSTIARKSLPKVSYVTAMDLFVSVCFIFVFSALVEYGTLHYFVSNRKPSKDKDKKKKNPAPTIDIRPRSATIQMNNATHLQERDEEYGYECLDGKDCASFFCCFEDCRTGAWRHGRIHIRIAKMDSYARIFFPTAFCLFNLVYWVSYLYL
As to the kind of experiment: [^3H]muscimol binding kinetics, recombinant α1β2γ2 in HEK293 membranes.
Excerpt: Human embryonic kidney (HEK) 293 cells (ATCC Cat# CRL‐1573; RRID: CVCL_0045; a commonly misidentified cell line by ICLAC; last authenticated by STR DNA profiling in December 2018) were transfected with rat cDNAs (α1, L08490; α6, L08495; β2, X15467; β3, X15468; γ2S, L08497; δ, L08496) in pRK5 plasmids under the control of the cytomegalovirus promoter (Uusi‐Oukari et al. 2000), using the calcium phosphate precipitation method essentially as described (Lüddens and Korpi 1997). The plasmids were used in 1 : 1 and 1 : 1 : 1 ratios for transfections containing 2 [(α1 or α6) + (β2 or β3)] or 3 [(α1 or α6) + (β2 or β3) + (γ2S or δ)] different subunits, respectively (5 μg of each plasmid DNA for a 10 cm plate). Mock transfection was done using 5 μg pRK5 plasmid backbone. The cells were harvested 48 h after transfection. Culture medium was removed and the cells were detached from the plates by pipetting in ice‐cold assay buffer containing 2 mM EDTA. The cells were homogenized (Ultra Turrax, 20 s at 9500 rpm), the homogenates centrifuged at 20 000 g for 10 min at +4°C, and washed once with the same buffer. The homogenates were finally suspended in assay buffer (1 mL/plate) and either used directly to binding assays or stored frozen at −70°C.
as §2, with “Finland).” for “Finland). The maximal binding disintegrations per minute (DPM) values (at 15 min in association) for recombinant studies with 5 nM [^3H]muscimol were between 700 and 2500 DPMs of specific binding (background subtracted). In native membranes, the maximal DPM values were between 2500 and 3000 for WTs and 1300–1500 for δKOs.”
as §3

The target in series [7] is cerebellar membranes of δKO mice (non‐δ‐GABAARs). As to the kind of experiment: [^3H]muscimol binding kinetics, δKO cerebellar membranes. Also noted: species or system mouse. The procedure:
as §1, §4, §3

Where [8] appears, read: room temperature (22°C), 5 nM [^3H]muscimol.
Setting [9] is: cerebellum WT‐δKO (native δ‐GABAARs, by subtraction).

Turning to `NCc1cc(=O)[nH]o1` [[^3H]muscimol] [[Methylene‐^3H]muscimol], the Kd in series [1] (calculated from k on and k off, read-out: apparent [^3H]muscimol affinities (K D) for non‐δ‐GABAARs) was approximately 1 nM; in series [1] (forebrain membranes, 22°C, K D = koff/kon, read-out: K D) it was 1.1 nM; in series [3] (22°C, K D = koff/kon), 1.7 nM; in series [5] (cerebellum WT‐δKO (native δ‐GABAARs, α6βδ), K D = koff/kon), ~1 nM and 1 nM; in series [6] (α1β2γ2 in HEK293 membranes, 22°C, K D = koff/kon) it was 1.6 nM; in series [7] (22°C, K D = koff/kon) it was 1.4 nM. Moreover, the k off in series [1] (forebrain membranes, room temperature (22°C)) was 1.67 ± 0.15 ^*** min^−1; in series [3] (room temperature (22°C)), 0.00783 ± 0.00233 s⁻¹; in series [4], 1.46 ± 0.05 ^††† min^−1; in series [5] (setting [9]) it was 0.002 ± 0.0005 s⁻¹; in series [6] (α1β2γ2 in HEK293 membranes, +4 °C), 0.00587 ± 0.00015 s⁻¹; in series [6] (α1β2γ2 in HEK293 membranes, room temperature (22°C)), 0.0297 ± 0.003 s⁻¹. Moreover, the k off in series [7] (room temperature (22°C)) is on record as 1.11 ± 0.09 ^* min^−1. In addition, the k on in series [1] (forebrain membranes, room temperature (22°C), 5 nM [^3H]muscimol) was 15 ± 3.1 × 10^8 ^** M^−1 × min^−1; in series [3] (setting [8]) it was 2.8 ± 0.2 × 10^8 M^−1 × min^−1; in series [5] (setting [9]), 1.2 ± 0.2 × 10^8 M^−1 × min^−1; in series [6] (α1β2γ2 in HEK293 membranes, room temperature (22°C), 5 nM [^3H]muscimol), 11 ± 0.6 × 10^8 M^−1 × min^−1; in series [7] (setting [8]) it was 7.7 ± 0.2 × 10^8 ^** M^−1 × min^−1. Moreover, in series [2], the “fraction of peripherally injected [^3H]muscimol that entered the brain” value is “around 0.02%”. Also, the “dissociation of [^3H]muscimol binding during the first 15 s after pre‐incubation” value in series [6] (α1β2γ2, 0°C, approximated) is on record as “about 10%”.
